As a reminder, the EC50 is the concentration giving half of the maximal effect. A lower EC50 goes with higher potency in that assay. A word on the IC50: it is the concentration that inhibits the measured activity by half. The low end stands for inhibition by little substance, the high end for a need for much substance.

We go through 2 compounds from article PMC7182439 (Cell, 2019).

Test [1] has as its target T1, SpCas9 (Streptococcus pyogenes, UniProt Q99ZW2). The experiment in a line: eGFP-disruption assay. In kind it is cell-based.
Test [2] deals with T1, SpCas9. Put plainly: in vitro DNA cleavage assay. In kind it is biochemical.

T1 sequence (Q99ZW2 whole entry): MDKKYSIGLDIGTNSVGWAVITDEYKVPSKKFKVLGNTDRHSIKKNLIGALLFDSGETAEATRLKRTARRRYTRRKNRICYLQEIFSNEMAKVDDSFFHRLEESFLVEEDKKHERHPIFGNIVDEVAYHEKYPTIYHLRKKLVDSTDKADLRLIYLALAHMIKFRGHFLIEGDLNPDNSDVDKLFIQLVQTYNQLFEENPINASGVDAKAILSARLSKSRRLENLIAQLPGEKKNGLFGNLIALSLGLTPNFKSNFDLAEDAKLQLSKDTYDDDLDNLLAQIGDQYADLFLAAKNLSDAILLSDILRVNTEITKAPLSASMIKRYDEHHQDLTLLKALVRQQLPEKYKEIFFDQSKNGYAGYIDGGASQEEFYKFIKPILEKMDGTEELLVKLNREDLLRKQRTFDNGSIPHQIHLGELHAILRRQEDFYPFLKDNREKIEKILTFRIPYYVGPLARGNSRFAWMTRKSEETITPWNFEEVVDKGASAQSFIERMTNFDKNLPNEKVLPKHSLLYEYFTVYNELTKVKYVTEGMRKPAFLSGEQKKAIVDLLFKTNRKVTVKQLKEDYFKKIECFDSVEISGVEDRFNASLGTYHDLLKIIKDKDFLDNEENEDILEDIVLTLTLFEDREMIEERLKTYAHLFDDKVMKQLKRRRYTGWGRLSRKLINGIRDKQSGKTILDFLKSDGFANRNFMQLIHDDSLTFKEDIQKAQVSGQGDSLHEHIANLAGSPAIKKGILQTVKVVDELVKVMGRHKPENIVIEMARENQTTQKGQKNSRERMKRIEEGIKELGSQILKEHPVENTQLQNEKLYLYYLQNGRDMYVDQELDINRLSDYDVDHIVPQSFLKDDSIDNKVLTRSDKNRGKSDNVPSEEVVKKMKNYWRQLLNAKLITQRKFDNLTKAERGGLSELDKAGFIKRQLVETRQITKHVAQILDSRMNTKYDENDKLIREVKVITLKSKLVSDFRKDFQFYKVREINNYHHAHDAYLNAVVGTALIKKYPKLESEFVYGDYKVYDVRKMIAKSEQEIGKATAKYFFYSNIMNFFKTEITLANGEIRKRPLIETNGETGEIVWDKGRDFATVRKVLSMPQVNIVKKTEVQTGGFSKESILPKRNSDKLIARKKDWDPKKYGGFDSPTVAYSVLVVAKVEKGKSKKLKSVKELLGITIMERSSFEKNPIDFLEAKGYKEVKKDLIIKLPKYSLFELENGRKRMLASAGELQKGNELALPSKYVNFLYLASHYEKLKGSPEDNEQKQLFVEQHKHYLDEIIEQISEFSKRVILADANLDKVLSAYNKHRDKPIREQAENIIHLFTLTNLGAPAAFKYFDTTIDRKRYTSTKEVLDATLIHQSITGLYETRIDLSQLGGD

With `COc1cccc(-c2ccc3c(c2)[C@H]2[C@H](CCN2C(=O)Cc2ccncc2)[C@H](CO)N3C)c1` [BRD3433], the EC50 in test [1] is 9.3 µM. `Cc1ccc(S(=O)(=O)N2CC[C@@H]3[C@H](CO)Nc4ccc(-c5ccccc5F)cc4[C@@H]32)cc1` [BRD0539]: the IC50 in test [2] is 22 µM.
